Measurements published in patent publication US10576102B2, “KOC1-derived peptide and vaccine including same” (ONCOTHERAPY SCIENCE, INC., priority 2014, dated 2020).
“Also recorded” adds a separate entry of the source.

What was measured:
[1] = system: COS7 cells transfected with both KOC1 and HLA-A*0101; assay: Specific CTL activity against target cells expressing KOC1 and HLA-A*0101; assay type: cell-based, African green monkey; conditions: listed as KOC1-A01-9-96
Procedure: (§1) Specifically, peptide-pulsed C1R-A01 (1×10^4 cells/well) was prepared as the stimulator cell. The induced CTLs, i.e., CTL lines and CTL clones, were used as the responder cell. The IFN-gamma ELISPOT assay and IFN-gamma ELISA were performed according to the manufacturer's manual.
A cDNA encoding the open-reading frame of a target gene or HLA-A*0101 was amplified by PCR. The PCR-amplified product was cloned into an expression vector. Expression vectors were transfected using Lipofectamine 2000 (Invitrogen) following the manufacturer's recommended protocol. Two days after transfection, the transfected cells were harvested using versene (Invitrogen), and used as the stimulator cell for CTL activity assay (5×10^4 cells/well).
The CTL clone established against KOC1-A01-9-96 (SEQ ID NO: 86) was investigated for its ability to recognize target cells expressing KOC1 and the HLA-A*0101 molecule. COS7 cells transfected with both full-length KOC1 and the HLA-A*0101 gene (a specific model of target cells expressing KOC1 and the HLA-A*0101 gene) were prepared as the target cell. COS7 cells transfected with either full-length KOC1 or HLA-A*0101 were prepared as the control.

[2] = system: peptide-pulsed C1R-A01; assay: IFN-gamma ELISA of CTL lines and CTL clone (HLA-A*0101); assay type: cell-based, human
Procedure: CTLs were propagated in culture using methods similar to those disclosed by Riddell et al. (Walter E A et al., N Engl J Med 1995, 333(16): 1038-44; Riddell S R et al., Nat Med 1996, 2(2): 216-23). The CTLs were co-cultured in a total of 25 ml AIM-V medium containing 5% AS and 40 ng/ml anti-CD3 antibody with two types of Mitomycin C-treated human B lymphoblastoid cell lines at 5×10^6 cells. One day after beginning of the culturing, 120 IU/ml IL-2 was added to the culture. On days 5, 8 and 11, a fresh AIM-V/5% AS medium containing 30 IU/ml IL-2 was added to the culture (Tanaka H et al., Br J Cancer 2001, 84(1): 94-9; Umano Y et al., Br J Cancer 2001, 84(8): 1052-7; Uchida N et al., Clin Cancer Res 2004, 10(24): 8577-86; Suda T et al., Cancer Sci 2006, 97(5): 411-9; Watanabe T et al., Cancer Sci 2005, 96(8): 498-506).
CTLs were seeded to make 1 or 10 cells/well in 96 round-bottomed microtiter plates (Nalge Nunc International). The CTLs were co-cultured with two types of Mitomycin C-treated human B lymphoblastoid cell lines at 1×10^4 cells in a total of 150 micro-1/well 5% AS-containing AIM-V medium with 30 ng/ml anti-CD3 antibody and 125 IU/ml IL-2. Ten days later, 50 micro-1 of IL-2 was added to the medium to reach a final IL-2 concentration of 125 IU/ml. On day 14, the CTL activity was tested, and the CTL clones were propagated using the same method as described above (Uchida N et al., Clin Cancer Res 2004, 10(24): 8577-86; Suda T et al., Cancer Sci 2006, 97(5): 411-9; Watanabe T et al., Cancer Sci 2005, 96(8): 498-506).
as §1

[3] = system: peptide-pulsed C1R-A01; assay: In vitro CTL induction, IFN-gamma ELISPOT assay (HLA-A*0101); assay type: cell-based, human; conditions: CTLs induced with peptide-pulsed DCs from HLA-A*0101-positive volunteers; day 21; vs peptide-pulsed C1R-A01, compared with unpulsed control
Procedure: C1R (C1R-A01) that stably expresses HLA-A*0101 was used as a stimulator cell. A cDNA encoding the open-reading frame of HLA-A*0101 was amplified by PCR and cloned into an expression vector. C1R cells were transfected with the expression vector, and then selected using G418 (Invitrogen) for two weeks. The G418-selected cells were seeded into wells containing G418-added culture medium in a 96-well plate, and further cultured for 30 days. The exogenous HLA-A*0101 expression in C1R cells was verified by flow cytometric analysis.
Monocyte-derived dendritic cells (DCs) were used as the antigen-presenting cell to induce a cytotoxic T lymphocyte (CTL) response against peptides presented on human leukocyte antigens (HLAs). As described in the other sections, DCs were generated in vitro (Nakahara S et al., Cancer Res 2003, 63(14): 4112-8). Specifically, peripheral-blood mononuclear cells isolated from healthy volunteers (HLA-A*0101-positive) with the Ficoll-Paque plus solution (Pharmacia) were separated by attaching to plastic tissue culture dishes (Becton Dickinson) and concentrated as a monocyte fraction. The monocyte-concentrated population was cultured in the presence of 1000 IU/ml granulocyte macrophage colony-stimulating factor (R&D System) and 1000 IU/ml interleukin(IL)-4 (R&D System) in an AIM-V medium (Invitrogen) containing 2% heat-inactivated autologous serum (AS). After seven days of culturing, the cytokine-induced DCs were pulsed with 20 micro-g/ml each of the synthesized peptides in an AIM-V medium at 37 degrees C. for three hours in the presence of 3 micro-g/ml beta 2-microglobulin. Next, these peptide-pulsed DCs were inactivated by X-ray irradiation (20 Gy), and mixed in a 1:20 ratio with autologous CD8^+ T cells obtained by positive selection using the CD8 Positive Isolation Kit (Dynal). These culture products were seeded in a 48-well plate (Corning). Each well was made to contain 1.5×10^4 peptide-pulsed DCs, 3×10^5 CD8^+ T cells and 10 ng/ml IL-7 (R&D System) in 0.5 ml of the AIM-V/2% AS medium. Three days later, these culture products were added with a final concentration of 20 IU/ml IL-2 (CHIRON). On day 7 and day 14, T cells were further stimulated with peptide-pulsed autologous DCs. The DCs were prepared every time by the same method as above. On day 21, after the third peptide stimulation, CTL activities were examined against the peptide-pulsed C1R-A01 cells (Tanaka H et al., Br J Cancer 2001, 84(1): 94-9; Umano Y et al., Br J Cancer 2001, 84(8): 1052-7; Uchida N et al., Clin Cancer Res 2004, 10(24): 8577-86; Suda T et al., Cancer Sci 2006, 97(5): 411-9; Watanabe T et al., Cancer Sci 2005, 96(8): 498-506).
as §1

VLDSLLVQY (a peptide derived from KOC1) [SEQ ID NO: 86]
specific CTL activity of CTL clone against target cells expressing KOC1 and HLA-A*0101 ([1]; COS7 transfected with both full-length KOC1 and HLA-A*0101): specific CTL activity; also recorded: potent CTL activities | specific CTL activity of CTL clone against control cells ([1]; COS7 transfected with either full-length KOC1 or HLA-A*0101): a significant specific CTL activity was not shown; also recorded: a significant specific CTL activity was not detected | IFN-gamma production of CTL clone, ELISA ([2]; CTL clone by limiting dilution, peptide-pulsed C1R-A01, listed as KOC1-A01-9-96): Potent IFN-gamma production | IFN-gamma production of CTL lines, ELISA ([2]; CTL lines, target cells pulsed with the peptide vs not pulsed, C1R-A01): potent IFN-gamma production | peptide-specific CTL activity (IFN-gamma production), ELISPOT [3]: potent IFN-gamma production
